# Experimental data as given in PMC4533973, “Synthesis and Evaluation of Chloramphenicol Homodimers: Molecular Target, Antimicrobial Activity, and Toxicity against Human Cells” (PLoS ONE, 2015).
# Key:
# HS-Sultan cells = assay: Toxicity assay in leukemic cell line (cell counting); assay type: cell-based, Human; settings: daily cell counting
# Description: (§1) Human leukemic cell lines, HS-Sultan (Burkitt’s lymphoma), Jurkat (T-cell acute lymphoblastic leukemia), and U937 (histiocytic lymphoma), were adjusted to 1×10^9 cells/l in RPMI-1640 medium supplemented with 10% fetal bovine serum and 1% penicillin/streptomycin. The cells were grown in triplicate in the absence (control cultures) or presence of CAM or CAM dimers for 4 days at 37°C, under a humidified 5% CO2 atmosphere. The medium was changed daily; CAM or CAM dimer addition was repeated after medium change. Aliquots were collected daily and counted in a CELL-DYN 3700 Hematology Analyzer. For cell necrosis and apoptosis assays, samples (10^6 cells) were collected and determined using the Annexin V-PE Apoptosis Detection Kit I (BD Pharmingen) for flow cytometry, according to the manufacturers’ instructions. Flow cytometry data were analyzed using the FlowJo flow cytometry analysis software. Necrotic and apoptotic cells were expressed as a percentage of total cells.
# (§2) S4 Fig. Toxicity assays in Human leukemic cell lines. HS-Sultan, Jurkat, and U937 cell lines were adjusted to […] in RPMI-1640 medium containing 1% Penicillin/Streptomycin and 10% fetal bovine serum. […] Aliquots were collected daily and counted in a CELL-DYN 3700 Hematology Analyzer.
# U937 cells = assay: as above; assay type: cell-based, Human; settings: daily cell counting
# Description: as §1, §2
# [1] = test system: 70S ribosomes from E. coli (23S rRNA); assay: Crosslinking of CAM dimers to ribosomes upon 365 nm irradiation; assay type: binding; settings: R*I complex, 365 nm light for 30 min, compound at 10×K i
# Description: Specifically, a mixture of E. coli ribosomes together with either 4 or 5, each added to the incubation mixture at concentration equal to 10×K i, were irradiated for 30 min with 365 nm light. Following purification, the irradiation products were analyzed by primer extension. […] In contrast, compound 4 crosslinked to C2611, without raising any modification signal in the A2058-A2059 region. It should be mentioned that the concentrations used for compounds 4 and 5 in this series of experiments were much lower (<60 μM) than those of CAM utilized previously by Long & Porse. […]
# Fig 5 CAM dimer crosslinking at the entrance to the exit tunnel, upon UV-irradiation. […] The irradiation products were analyzed by probing with DMS (panels A and B) or CMCT (panel C) and primer extension, before (lanes 3 and 6) or after discharging from excess CAM dimer (lanes 2 and 5). […]
# Following formation of R*I complexes, the samples were irradiated at 365 nm, for 30 min, in a Vilber Lourmat UV Cabinet (VL-215.LC-30W) light source. […] Half of the sample was probed with DMS or CMCT, and then analyzed by primer extension as shown above, while the other half was extracted with phenol, phenol-chloroform (1:1), and chloroform, followed by ethanol precipitation to remove non-crosslinked agents. […]
structure (smiles),measurement,setting,value
"O=C(N[C@H](CO)[C@H](O)c1ccc([N+](=O)[O-])cc1)c1ccc(C(=O)N[C@H](CO)[C@H](O)c2ccc([N+](=O)[O-])cc2)cc1 [Compound 5, N^1,N^4-Bis ((1R,2R)-1,3-dihydroxy-1-(4-nitrophenyl)propan-2-yl)-terephthalamide]",sensitivity of HS-Sultan cells,HS-Sultan cells,insensitive
same,sensitivity of U937 cells,U937 cells,insensitive
same,nucleoside(s) of 23S rRNA crosslinked,[1],"C2610, and less to nucleosides A2058 and A2059"
